From US8193185B2, “Use of tryptanthrin compounds for immune potentiation” (Novartis Vaccines and Diagnostics, Inc., priority 2003, dated 2012)

System: human peripheral blood mononuclear cells (PBMC)
Experiment: HTS assay for small molecule immune potentiators: TNF-a production by human PBMC (sandwich ELISA)
Type: cell-based
Conditions: human PBMC 500,000 per mL, 18 h at 37° C., secreted TNF by sandwich ELISA
Text: Candidate small molecule immune potentiators can be identified in vitro. Compounds are screened in vitro for their ability to stimulate human peripheral blood mononuclear cells to produce cytokines (e.g. TNF-a and IL-12 p40). Apoptosis inducing small molecules may be identified having this activity. These small molecule immunopotentiators have potential utility as adjuvants and immunotherapeutics.
In an assay procedure (High Throughput Screening (HTS)) for small molecule immune potentiators (SMIPs), human peripheral blood mononuclear cells (PBMC), 500,000 per mL in RPMI 1640 medium with 10% FCS, are distributed in 96 well plates (100,000 per well) already containing 5 μM of compound in DMSO. The PBMCs are incubated for 18 h at 37° C. in 5% CO2. Their ability to produce cytokines in response to the small molecule compounds is determined using a modified sandwich ELISA.
Briefly supernatants from the PBMC cultures are assayed for secreted TNF using a primary plate bound antibody for capture followed by a secondary biotinylated anti-TNF antibody forming a sandwich. The biotinylated second antibody is then detected using streptavidin-Europium and the amount of bound europium is determined by time resolved fluorescence. Compounds are screened for their TNF inducing activity that is measured in the assay as increased Europim counts over cells incubated in RPMI medium alone. “Hits” are selected based on their TNF-inducing activity relative to an optimal dose of lipopolysaccaride LPS (1 μg/ml), a strong TNF inducer. The robustness of the assay and low backgrounds have allowed for the routine selection of hits with ˜10% of LPS activity that is normally between 5-10× background (cells alone). Selected hits are then subjected to confirmation for their ability to induce cytokines from multiple donors at decreasing concentrations. Those compounds with consistent activity at or below 5 μM are considered confirmed for the purposes of this assay. The assay is readily modified for screening for compounds effective at higher or lower concentrations.

Compound	minimal effective concentration [µM]
O=C1c2cc(I)ccc2-n2c1nc1ccc(I)cc1c2=O [Compound 1042, 2,8-diiodoindolo[2,1-b]quinazoline-6,12-dione]	≥ 20
O=C1c2cc(I)ccc2-n2c1nc1c(I)cc(I)cc1c2=O [Compound 1043, 2,4,8-triiodoindolo[2,1-b]quinazoline-6,12-dione]	≥ 20
O=C1c2cc(F)ccc2-n2c1nc1c(OCc3ccccc3)cccc1c2=O [Compound 1044, 8-fluoro-4-[(phenylmethyl)oxy]indolo [2,1-b]quinazoline-6,12-dione]	≥ 20
O=C1c2cc(Cl)ccc2-n2c1nc1cc(N3CCOCC3)ccc1c2=O [Compound 1045, 8-chloro-3-morpholin-4-ylindolo[2,1-b]quinazoline-6,12-dione]	≥ 20
O=C1c2cc(C(F)(F)F)ccc2-n2c1nc1ccccc1c2=O [Compound 1046, 8-(trifluoromethyl)indolo[2,1-b]quinazoline-6,12-dione]	≥ 20
CN(CC(=O)O)c1ccc2c(=O)n3c(nc2c1)C(=O)c1cc(Cl)ccc1-3 [Compound 1047, [(8-chloro-6,12-dioxo-6,12-dihydroindolo[2,1-b]quinazolin-3-yl)(methyl)amino]acetic acid]	≥ 20
CN(CCOC(=O)CCC(=O)O)c1ccc2c(=O)n3c(nc2c1)C(=O)c1cc(Cl)ccc1-3 [Compound 1048, 4-({2-[(8-chloro-6,12-dioxo-6,12-dihydroindolo[2,1-b]quinazolin-3-yl)(methyl)amino]ethyl}oxy)-4-oxobutanoic acid]	≥ 20
CCCCCCCC(=O)OCCN(C)c1ccc2c(=O)n3c(nc2c1)C(=O)c1cc(Cl)ccc1-3 [Compound 1049, 2-[(8-chloro-6,12-dioxo-6,12-dihydroindolo[2,1-b]quinazolin-3-yl)(methyl)amino]ethyl octanoate]	≥ 20
CN(CCO)c1ccc2c(=O)n3c(nc2c1)C(=O)c1cc(OC(F)(F)F)ccc1-3 [Compound 1050, 3-[(2-hydroxyethyl)(methyl)a-mino]-8-[(trifluoromethyl)oxy]indol o[2,1-b]quinazoline-6,12-dione]	≥ 20
O=C1c2cc(Cl)ccc2-n2c1nc1cc(SCCO)ccc1c2=O [Compound 1051, 8-chloro-3-[(2-hydroxyethyl)thio]indolo[2,1-b]quinazoline-6,12-dione]	≥ 20
CC(=O)OCCCCCCc1ccc2c(c1)C(=O)c1nc3ncccc3c(=O)n1-2 [Compound 1052, 6-(5,11-dioxo-5,11-dihydropyrido[2′,3′:4,5]py-rimido[1,2-a]indol-9-yl)hexyl acetate]	≥ 20
